Assay [1] relates to E. coli. Format: cell-based, Escherichia coli. The conditions noted are these: 1 mM magnesium; 10 μg/mL H2A, 2 μM LL-37, 10 μM MAG2, 1 μg/mL PMB, 10 μg/mL Kan, 10 μg/mL Cam, alone or combined. As for the experimental part: Growth curve experiments were performed using a Synergy HTX multi-mode plate reader and sterile, tissue-culture treated, clear bottom, black polystyrene 96-well microplates (Corning). The temperature setpoint was 37° C. and preheated before beginning measurements. Each well contained 200 μL of total bacterial solution. For experiments performed with stationary phase bacteria, overnight cultures of bacteria were grown overnight to saturation, diluted 1:1000 into minimal medium with 1 μM or 1 mM MgSO4, and supplemented with H2A, LL-37, kanamycin, chloramphenicol, or polymyxin B. For experiments performed with exponential phase bacteria, overnight cultures of bacteria were sub-cultured in fresh minimal medium containing 1 mM MgSO4 and grown to an optical density at 600 nm (OD600) of 0.2. Exponential-phase bacteria were diluted 1:20 into fresh minimal medium with 1 μM or 1 mM MgSO4, and supplemented with H2A, LL-37, magainin-2, kanamycin, chloramphenicol, or polymyxin B. After adding antimicrobial agents, bacterial cultures were immediately added to the 96-well microplates for growth measurements. Growth curves were constructed by taking measurements every 15 minutes for up to 48 hours. Shaking was set to continuous orbital, with a frequency of 282 cpm (3 mm). The read speed was normal, with a 100 msec delay, and 8 measurements per data points.

Assay [2] deals with E. coli. The assay is described as follows: Fluorescent histone and fluorescent LL-37 uptake in E. coli. Format: cell-based, Escherichia coli. The conditions noted are these: 1 hour; for AF-H2A uptake (cellular fluorescence): 10 μg/mL AF-H2A alone or with 10 μg/mL Cam, 50 μg/mL Kan, 2 μM LL-37, 1 μg/mL PMB or 10 μM MAG2, 1 mM magnesium. As for the experimental part: E. coli strain MG1655 or S. aureus strain RN4220 was cultured to an OD600 of 0.2, and diluted 1:20 into fresh minimal medium containing 1 mM MgSO4. H2A uptake in E. coli was measured by adding 10 μg/mL AF-H2A (1% Alexa Fluor-labeled H2A mixed with 99% unlabeled H2A) and 10 μg/mL Cam, 50 μg/mL Kan, 2 μM LL-37, 1 μg/mL PMB, or 10 μM MAG2, incubating for 1 hour, and analyzing using fluorescence microscopy. H2A uptake in S. aureus was measured using same concentrations of AF-H2A and LL-37. To measure uptake in low ionic conditions, E. coli was grown to OD600 of 0.2 in minimal medium containing 1 mM MgSO4, and diluted 1:20 into fresh minimal medium containing 1 μM or 1 mM MgSO4. H2A uptake in E. coli was measured by adding 10 μg/mL AF-H2A (1% Alexa Fluor-labeled H2A mixed with 99% unlabeled H2A), incubating for up to 3 hours, and analyzing using fluorescence microscopy. LL-37 uptake in both bacteria was measured by adding 1 μM fluorescently-labeled LL-37 (1% 5-FAM-LC-LL-37 (Anaspec) mixed with 99% unlabeled LL-37) or additionally with 10 μg/mL unlabeled H2A, incubating for 1 hour, and imaging using fluorescence microscopy. Time-lapse measurements of LL-37 uptake in E. coli were performed by adding 2 μM fluorescently-labeled LL-37 (3% 5-FAM-LC-LL-37 mixed with 97% unlabeled LL-37) or additional 10 μg/mL unlabeled H2A, immobilizing on agarose pads, and imaging using fluorescence microscopy. Cell membranes were visualized by adding 1.6 μM FM4-64 (MilliporeSigma, Burlington, Mass.), immobilizing on agarose pads, and imaging using fluorescence microscopy.

Assay [3] concerns E. coli. The assay is described as follows: Cell aggregate size and cell size analysis. Format: cell-based, Escherichia coli. On the procedure: MG1655 were cultured to an OD600 of 0.2, diluted 1:20 into fresh MinA minimal medium, treated with 0-4 μM LL-37 or 0-100 μg/mL H2A, and incubated for 1 hour. Cells were immobilized on an agarose pad using, imaged using phase contrast microscopy, and analyzed using our own custom-written image analysis tools^67,68. version 1.1 that was written in Matlab (Version R2017b; Mathworks, Natick, Mass.). See ‘Code Availability’ section below to download code. The total pixel area of each individual cell was determined by computing the mask area and converting from pixels to μm^2 by multiplying the mask area by a factor of 0.00422 μm^2/pixel to account for the microscope camera pixel size and objective magnification.

Assay [4] relates to E. coli. The assay can be described thus: Chromosomal analysis using SYTOX and HupA-mRuby2. Format: cell-based, Escherichia coli. The conditions noted are these: 10 μg/mL H2A, 2 μM LL-37 or both; 3 hours. As for the experimental part: MG1655 or XL-1 Blue expressing HupA-mRuby2 was cultured to OD600 of 0.2, diluted 1:20 into fresh MinA minimal medium, and treated with 2 μM LL-37, 10 μg/mL H2A or both LL-37 and H2A for 30 minutes. For SYTOX visualization, MG1655 were stained with 3 uM SYTOX Green nucleic acid stain (ThermoFisher, Waltham, Mass.) for 10 minutes. Cells were immobilized on agarose pads containing 2 uM LL-37, 10 μg/mL H2A, or both LL-37 and H2A, and remained on the pad for 3 hours before imaging using the fluorescence microscopy. For SYTOX analysis, pads additionally contained 5 uM SYTOX Green. Raw images were analyzed through principal component analysis using our own custom-written image analysis tools^67,68 version 1.1 and modified in Matlab (Version R2017b; Mathworks, Natick, Mass.). See ‘Code Availability’ section below for code. Individual cells were identified in phase contrast images using canny edge detection and using SuperSegger^70. […] The covariances between corresponding pixels of different cells were computed using the 16 bit intensity values from the rotated and resized fluorescence images and for the same images rotated by an additional 180 degrees. […] The size of each bin was determined by subtracting the minimum principal component score from the maximum principal component score and dividing that by the number of bins along that principal component. […]

Assay [5] deals with E. coli. The assay can be described thus: Timelapse of E. coli recovery and time course of membrane healing (CFP, PI). The assay is classed as cell-based, Escherichia coli. The note with it: then washed. On the procedure:
To quantify the time-course of recovery in E. coli treated with LL-37 alone or with the synergistic combination of LL-37 and H2A, MAL204 was cultured to mid-exponential phase in MinA minimal medium, added 1 μM LL-37 or 1 μM LL-37 with 10 μg/mL H2A, and incubated for 1 hour. The solution was filtered through a 0.22 μm filter to remove excess LL-37 and H2A and cells were resuspended in fresh minimal medium. Cells were immobilized on a 1% agarose pad and imaged over an hour time period.
To quantify the time-course of membrane repair in bacteria treated with H2A alone, AMPs alone, or the synergistic combination of AMPs and H2A, MAL204 was grown to mid-exponential phase in MinA minimal medium, diluted 1:20 with 10 μg/mL H2A, 1 μM LL-37, 1 μM LL-37 with 10 μg/mL H2A, 10 μM MAG2, or 1 μM MAG2 with 10 μg/mL H2A, and incubated for 1 hour. […] Cells were allowed to recover for 0, 30, 60 minutes before the addition of 30 μM propidium iodide for 15 minutes prior to performing fluorescence microscopy. Intracellular propidium iodide fluorescence and CFP fluorescence were quantified. To quantify the time-course of membrane repair in bacteria treated with H2A in low and physiological environments, MAL204 was grown to mid-exponential phase, diluted 1:20 into minimal media with 1 μM or 1 mM MgSO4, with or without 10 μg/mL H2A, and incubated for 3 hours. […]

Assay [6] concerns E. coli. The assay is described as follows: SEM imaging of E. coli. The assay is classed as cell-based, Escherichia coli. The conditions noted are these: 10 μg/mL H2A, 1 μM LL-37 or both; 1 hour; 1 mM magnesium. As for the experimental part:
MG1655 was cultured to an OD600 of 0.2, diluted 1:20, and supplemented with 10 μg/mL H2A and/or 1 μM LL-37. Cells were treated for 1 hour and added to a glass bottomed petri dish for 15 minutes. Due to lower levels of adhesion, control cells were not diluted 1:20 and were incubated in the glass-bottomed petri dish for 45 minutes. Media was removed and 4% paraformaldehyde (PFA) was added for 20 minutes to fix bacteria. Dehydration was performed using serial ethanol dilutions. The fixed and dehydrated samples were coated with 10 nm of iridium using an ACE600 sputter coater (Leica Microsystems, Buffalo Grove, Ill.). Bacteria and surfaces were then characterized using a FEI Magellan 400 XHR Scanning Electron Microscope (FEI Company, Hillsboro, Oreg.) at a 45° tilt angle with an acceleration voltage of 3 kV.

Assay [7] concerns E. coli. The assay can be described thus: In vivo transcription assay (tet-inducible mCherry). The assay is classed as cell-based, Escherichia coli. The note with it: 1-hour pre-treatment with 10 μg/mL H2A, 2 μM LL-37 or both; anhydrotetracycline 1 hour. As for the experimental part: To determine how histone entry into the bacterial cell impacts transcription, MAL190 was cultured to mid-exponential phase, diluted 1:20 in MinA minimal medium, treated with 10 μg/mL Histone H2A and/or 2 μM LL-37, incubated for 1 hour, and induced for transcription using 50 ng/mL of anhydrotetracycline. The fluorescence of mCherry was measured after 1 hour using fluorescence microscopy.

The subject of a further assay is E. coli genomic DNA. The assay can be described thus: Non-denaturing nucleic acid PAGE. The assay is classed as binding, Escherichia coli. The conditions noted are these: 1 μg DNA with 0-1.4 μg H2A or LL-37. As for the experimental part: Overnight MG1655 cultures were grown to saturation in Minimal. DNA purification was performed using a Miniprep kit (Qiagen, Germantown, Md.). A three-second sonication step was performed after lysis to isolate genomic DNA.
10 μL mixtures containing 1 μg purified DNA from MG1655 were incubated with 0-1.4 μg Histone H2A or LL-37 for 25 minutes at 25° C. Gel loading sample buffer (5×, Bio-Rad, Hercules, Calif.) was added to a final concentration of 1× and the products were separated by native PAGE on a 5% TBE gel (Bio-Rad, Hercules, Calif.) at 100 V for 60 minutes. The gel was stained with 1×SYBR safe (Invitrogen, Carlsbad, Calif.) in TBE buffer^71 for 30 minutes before visualization using a EOS Rebel T5 DSLR camera with an f/3.5-5.6 18-55 mm lens (Canon, Huntington, N.Y.) and a DR46B Transilluminator (Clare Chemical, Dolores, Colo.).

Assay [8] has as its system E. coli. The conditions noted are these: E. coli after 12 hours; reported (ref. 36); cited from earlier work.

“Also recorded” adds a separate entry of the source.

In the case of polymyxin B [PMB, reference compound], the “E. coli growth (growth rate, lag time)” value with E. coli [1] was “slightly inhibited growth”. Besides, in the assay with E. coli [2], the “AF-H2A uptake (cellular fluorescence)” value is “significantly enhanced AF-H2A uptake”.
Take “LL-37: human cathelicidin antimicrobial peptide LL-37 (Anaspec)”: in the assay with E. coli [3] (H2A or LL-37, 1 hour), the aggregation of cells entry is “did not induce aggregation”. For the same compound, the cell size result in the assay with E. coli [3] (LL-37 alone, indicated concentrations, 1 hour) was “significant reduction in cell size”. In the assay on E. coli [4], the HupA-mRuby2 localization result was “condensed the fluorescence near the center of the cell” and the “chromosome localization pattern (Sytox Green)” value was “no significant change in localization”. The “CFP fluorescence / growth during 1-hour recovery period” value in the assay with E. coli [5] (1-hour treatment with 10 μg/mL H2A, 1 μM LL-37, 10 μM MAG2, alone or combined) is “resumed growth and division and retained expression of CFP; also recorded: CFP fluorescence increased or remained the same”. The “PI fluorescence during 1-hour recovery” value in the assay on E. coli [5] (1-hour treatment with H2A, LL-37, MAG2, alone or combined) is “significantly lower”. Moreover, the “cell morphology by SEM” value in the assay on E. coli [6] is “few cell morphological differences”. Also, in the assay with E. coli [1], the “E. coli growth (growth rate, lag time)” value was “decreased the growth rate and slightly extended the lag time”. The “mCherry fluorescence (transcription induction)” value in the assay on E. coli [7] is recorded as “little effect on mCherry fluorescence”. Besides, in the assay on E. coli genomic DNA, the “migration / retention of E. coli DNA in gel” value is “less retention of bacterial DNA”. In the assay with E. coli [8], the “bulk minimum inhibitory concentration (MIC)” value was 2 µM. Further, the “AF-H2A uptake (cellular fluorescence)” value with E. coli [2] is on record as “significantly enhanced AF-H2A uptake”. Besides, in the assay on E. coli [2] (fluorescently-labeled LL-37 alone or with 10 μg/mL H2A), the “LL-37 uptake (5-FAM-LL-37 fluorescence)” value was “Fluorescence was observed in the cytoplasm”.
With `O=C(N[C@H](CO)[C@H](O)c1ccc([N+](=O)[O-])cc1)C(Cl)Cl` [chloramphenicol, reference compound], the “E. coli growth (growth rate, lag time)” value in the assay with E. coli [1] was “increased the growth lag time”. The “AF-H2A uptake (cellular fluorescence)” value in the assay on E. coli [2] is given as “did not induce AF-H2A uptake”.

Values taken from patent US20220265766A1, “ANTIMICROBIAL THERAPY THROUGH THE COMBINATION OF PORE-FORMING AGENTS AND HISTONES” (THE REGENTS OF THE UNIVERSITY OF CALIFORNIA, priority 2019, published 2022).
